The target of the assay is T1, 3-phosphoshikimate 1-carboxyvinyltransferase (Escherichia coli K-12, UniProt P0A6D3).
T1 sequence (P0A6D3 whole entry): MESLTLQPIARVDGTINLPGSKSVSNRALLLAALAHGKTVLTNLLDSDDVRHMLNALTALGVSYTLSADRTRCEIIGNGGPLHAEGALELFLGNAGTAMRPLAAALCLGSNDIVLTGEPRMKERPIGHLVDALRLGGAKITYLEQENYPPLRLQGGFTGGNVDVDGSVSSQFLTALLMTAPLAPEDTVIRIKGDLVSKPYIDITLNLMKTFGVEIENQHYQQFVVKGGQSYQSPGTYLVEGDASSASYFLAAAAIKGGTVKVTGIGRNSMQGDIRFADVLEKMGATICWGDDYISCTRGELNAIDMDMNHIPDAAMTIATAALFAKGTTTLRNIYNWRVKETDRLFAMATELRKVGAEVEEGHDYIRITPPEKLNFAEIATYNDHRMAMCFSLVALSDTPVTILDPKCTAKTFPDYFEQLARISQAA
The experiment in a line: Compound was tested for inhibitory activity against EPSP(5-enolpyruvylshikimate 3-phosphate) synthase in Escherichia coli. As to conditions: for Ki: read-out: Ki app.

As to `O=C(O)C1=C[C@@H](OP(=O)(O)O)[C@@H](O)CC1`, the Ki was 13 µM.
Still for that read-out and setting: the result for `O=C(O)c1cc(C(O)P(=O)(O)O)c[nH]1` (stereo not drawn) reads 0.0145 µM; that for `O=C(O)C1=C[C@@H](OP(=O)(O)O)[C@@H](O)[C@H](O[C@](OP(=O)(O)O)(C(=O)O)C(F)(F)F)C1`, 0.032 µM.
Same read-out and setting: the result for `C[C@@](O[C@@H]1CC(C(=O)O)=C[C@@H](OP(=O)(O)O)[C@H]1O)(C(=O)O)P(=O)(O)O` reads 0.005 µM.
`O=C(O)C1=C[C@@H](OP(=O)(O)O)[C@@H](O)[C@H](O[C@](CF)(OP(=O)(O)O)C(=O)O)C1`: the Kd (read-out: Kd app) worked out at 0.0006 µM.
Consider `O=C(O)C1=C[C@@H](OP(=O)(O)O)[C@@H](O)[C@H](O[C@](OP(=O)(O)O)(C(=O)O)C(F)F)C1`, for which the Ki came out at 0.004 µM.
Usually IC50 stands for the concentration that gives 50% inhibition. On to `O=C(O)c1cccc(P(=O)(O)O)n1`, for which half-maximal inhibition (IC50) was put at 50000 µM.
On the same count and under the same terms, the result for `O=C(O)c1ccc(O)c(C(O)(C(=O)O)C(=O)O)c1` reads 20000 µM; that for `O=C(O)C1CCC(P(=O)(O)O)N1` (stereo not drawn), 50000 µM.
The same measure, in the same setting: the result for `O=C(O)c1cccc(P(=O)(O)O)c1` reads 50000 µM.
For the compound `O=C(O)c1cc(OC(C(=O)O)C(=O)O)cc(OC(C(=O)O)P(=O)(O)O)c1` (stereo not drawn), the Ki turned out to be 1.3 µM.
`O=C(O)c1cccn1CP(=O)(O)O` returned a half-maximal inhibitory concentration (IC50) of 50000 µM.
As for `O=C(O)c1cc(OC(C(=O)O)P(=O)(O)O)c(O)c(C(O)(C(=O)O)C(=O)O)c1` (stereo not drawn), the Ki is 0.52 µM.

Values taken from ChEMBL document CHEMBL1128939, “New simplified inhibitors of EPSP synthase: The importance of ring size for recognition at the shikimate 3-phosphate site” (Bioorg Med Chem Lett, 1996).
